Experimental data: ChEMBL document CHEMBL1201862, “PubChem BioAssay data set” (2004)
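96-well plates; 48 h exposure; 5 concentrations. Endpoints by linear interpolation between flanking doses. Not reached: highest tested concentration assigned. GI50 = concentration required for 50% inhibition of growth.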 Active and inactive are the calls of the source. No stated cut-off is given here; in the data, active = GI50 up to about 1.1 µM and inactive = higher.

How the values were obtained:
Test in all cases: inhibition of tumour cell growth, NCI panel, 48 h
[1] = system: ACHN
[2] = system: CAKI-1
[3] = system: EKVX
[4] = system: HCC 2998
[5] = system: HOP-92
[6] = system: Malme-3M
[7] = system: NCI-H23
[8] = system: NCI-H522
[9] = system: OVCAR-4
[10] = system: RXF 393
[11] = system: SF-295
[12] = system: SK-MEL-28
[13] = system: SK-MEL-2
[14] = system: SK-MEL-5
[15] = system: SN12C
[16] = system: TK-10
[17] = system: UACC-62
[18] = system: HL-60
[19] = system: K562
[20] = system: RPMI-8226

Measured: GI50

Cn1c(=O)c2c(nc(Cc3ccccc3)n2CC(=O)O)n(C)c1=O
inactive: [1] > 100 µM | [2] > 100 µM | [3] > 100 µM | [4] > 100 µM | [5] > 100 µM | [6] > 100 µM | [7] > 100 µM | [8] > 100 µM | [9] > 100 µM | [10] > 100 µM | [11] > 100 µM | [12] > 100 µM | [13] > 100 µM | [14] > 100 µM | [15] > 100 µM | [16] > 100 µM | [17] > 100 µM

C=CCCCCn1c2ccccc2c2c(C)c3cnccc3c(C)c21
inactive: [2] 8.69 µM | [3] 12.9 µM | [4] 10.1 µM | [18] 2.07 µM | [5] 4.06 µM | [19] 3.32 µM | [6] 9.02 µM | [7] 4.63 µM | [8] 3.97 µM | [9] 6.5 µM | [20] 2.81 µM | [10] 6.25 µM | [11] 8.71 µM | [12] 9.82 µM | [13] 13.4 µM | [14] 5.08 µM | [15] 8.67 µM | [17] 11.2 µM

O=P(O)(O)CN1CCN(CP(=O)(O)O)CCN(CP(=O)(O)O)CCN(CP(=O)(O)O)CC1
inactive: [1] > 100 µM | [2] > 100 µM | [3] > 100 µM | [4] 88.7 µM | [18] 25.4 µM | [5] 38.3 µM | [19] 31.8 µM | [7] 55.6 µM | [8] 90.4 µM | [9] > 100 µM | [20] 21.2 µM | [10] 47.4 µM | [11] > 100 µM | [13] 32.8 µM | [14] > 10 µM | [15] > 100 µM | [16] 55.5 µM | [17] 46 µM

CCOC(=O)C(=O)Nc1ccccc1CC
inactive: [1] > 100 µM | [2] > 100 µM | [3] > 100 µM | [4] > 100 µM | [18] > 100 µM | [5] > 100 µM | [19] > 100 µM | [6] > 100 µM | [7] > 100 µM | [8] > 100 µM | [9] > 100 µM | [20] > 100 µM | [10] > 100 µM | [11] > 100 µM | [12] > 100 µM | [13] > 100 µM | [14] > 100 µM | [15] > 100 µM | [16] > 100 µM | [17] > 100 µM

N#CCC(=O)N/N=C1/C(=O)N(c2ccc(Cl)cc2)C(=O)C(=O)C1c1nc2ccccc2s1 (configuration not stated)
inactive: [1] > 100 µM | [2] > 100 µM | [3] 89.3 µM | [4] > 100 µM | [5] 28.2 µM | [6] > 100 µM | [7] > 100 µM | [8] 46.3 µM | [9] > 100 µM | [10] 25.8 µM | [11] > 100 µM | [12] > 100 µM | [13] 89.9 µM | [14] > 100 µM | [15] > 100 µM | [16] > 100 µM | [17] 60.3 µM

Nc1c(/N=N/c2ccc(-c3ccc(/N=N/c4c(O)ccc5cc(S(=O)(=O)O)cc(S(=O)(=O)O)c45)cc3)cc2)c(S(=O)(=O)O)cc2cc(S(=O)(=O)O)c(/N=N/c3ccccc3)c(O)c12
inactive: [3] > 100 µM | [4] > 100 µM | [18] 85.1 µM | [5] > 69.7 µM | [19] > 100 µM | [6] > 100 µM | [7] > 96.8 µM | [8] > 100 µM | [9] > 100 µM | [20] > 100 µM | [10] > 100 µM | [11] > 77.1 µM | [12] > 100 µM | [13] > 100 µM | [14] > 100 µM | [15] > 100 µM | [17] > 100 µM

COc1ccc2c(c1)CCC(CN1CCN(CCOC(c3ccccc3)c3ccccc3)CC1)C2O (configuration not stated)
inactive: [1] 12.6 µM | [2] 15.7 µM | [3] 11.1 µM | [4] 4.28 µM | [18] 2.81 µM | [5] 14.4 µM | [19] 6.58 µM | [6] 17.5 µM | [7] 15.1 µM | [8] 16.6 µM | [9] 15.9 µM | [20] 11 µM | [10] 14.1 µM | [11] 18.9 µM | [12] 16.5 µM | [13] 17.5 µM | [14] 8.3 µM | [15] 13.5 µM | [16] 14.1 µM | [17] 13.5 µM
